Measurements as given in patent publication US8334371B2, “Lactic acid bacteria-derived double-stranded RNA” (Kikkoman Corporation, priority 2007, dated 2012).

B1: DSR2: synthetic double-stranded RNA, 119 mer, SEQ ID NO. 6, made by in vitro transcription and annealing (nucleic acid, listed as Tetragenococcus halophilus)
chain: AAAAAATTACCTTTTTCTATTCGTGAGAAAATTTCTCAAGCCGACAAGTATCATAAAAAATTTGCTTTTGAACACTTTTTGAAGGTGTTTCTCTATGGCATCGATCATGAGTGTGAAAG
modifications: RNA, all phosphodiester, T or U not given here; further chemistry not fully specified
notes: 6, made by in vitro transcription and annealing

System: bone marrow-derived dendritic cells
Assay: Promotion of interferon β production from bone marrow-derived dendritic cells (PBL interferon β assay kit)
Format: cell-based, mouse
Method: In addition, measurement was also carried out on interferon β, which has been reported to be involved in the production of interleukin 12. Activity promoting production of interferon β from bone marrow-derived dendritic cells (after culturing for 6 hours using an interferon β assay kit (PBL)) was as shown in FIG. 8.
At this time, interferon […], which has been reported to be involved in interleukin 12 production, was also measured.
Bone marrow-derived dendritic cells were prepared in the same manner as Example 2. Synthetic RNA was added to the bone marrow-derived dendritic cells followed by co-culturing for 6 hours in a 5% CO2 incubator at 37° C. Interferon β production promoting activity was measured using an interferon β assay kit manufactured by PBL.
Bone marrow-derived dendritic cells were prepared in the same manner as Example 2. Synthetic RNA was added to the bone marrow-derived dendritic cells followed by co-culturing for 24 hours in a 5% CO2 incubator at 37° C. Interferon β production promoting activity was measured using the interferon β assay kit manufactured by PBL.

Molecule	interferon β production promoting activity (culturing for 6 hours, concentration response)	interferon β production promoting activity (dendritic cells from TLR3-knockout mice vs wild type, 6 hours)	interferon β production from bone marrow-derived dendritic cells (co-culturing for 24 hours)
DSR1: synthetic double-stranded RNA, 46 mer, SEQ ID NO. 5, sequence cloned from Th221 double-stranded RNA fraction (AAATTTTCAAAAACCTGTTTTGCTTCTTCTAAAAATCCAATTGAAA; listed as DNA, chemistry not given here; listed as Tetragenococcus halophilus)	increased dependent on the concentration	decreased	
B1			indicated to be produced
